One series addresses T1, ArpA (Streptomyces griseus, UniProt Q9ZN78).
T1 sequence (Q9ZN78 1-276): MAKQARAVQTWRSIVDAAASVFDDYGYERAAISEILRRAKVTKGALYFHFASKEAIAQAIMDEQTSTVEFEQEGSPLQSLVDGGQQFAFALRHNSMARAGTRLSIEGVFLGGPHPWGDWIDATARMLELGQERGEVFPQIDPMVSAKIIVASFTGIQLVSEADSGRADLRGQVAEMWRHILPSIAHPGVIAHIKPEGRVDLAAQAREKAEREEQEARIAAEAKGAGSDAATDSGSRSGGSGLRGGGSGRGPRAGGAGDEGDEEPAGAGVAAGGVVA
As to conditions: A factor/ArpA; read-out: dissociation constant (Kd value); cited from earlier work.

The subject of the next series is plants. Nature of the series: Toxicity to plants. Particulars: concentration of 10 μM. The text has this:
The actinomycete autogenous regulatory factors have no toxicity to plants.

The test system of series [1] is GUS reporter gene placed under the control of the operator BARE-3 (repressor BarA). Nature of the series: GUS reporter induction at low VB concentrations in transiently transformed cultured tobacco cells (Example 7). Format: cell-based. The text has this: Cultured tobacco cells were provided with the characters of the repressor BarA (receptor protein for VB) and operator BARE-3 (one of the target sequences for BarA) constituting a gene expression inducing system with the actinomycete Streptomyces virginiae autogenous regulatory factor VB as the inducer by gene transfer and whether the expression of the GUS reporter gene placed under the control of the operator BARE-3 was induced was examined by administering the inducer VB in low concentrations to thus-obtained transiently transformed cultured tobacco cells.
Like in Example 6, the GUS reporter gene placed under the control of BARE-3 (Example 2, plasmid pCaMV35SD-gus) was further transferred into a cultured tobacco cell transformant clone (Example 3, No. 21 shown in FIG. 1) seemingly indicating relatively high level accumulation of the BarA protein among the clones obtained by transferring the barA gene (Example 1, binary vector pBICaMV35S-barA) into cultured tobacco BY2 cells, for transient transformation of that clone. […]

pKd: −log10 of the molar value.

One may read the pKd as the Kd on a negative log10 scale, so that one unit is a factor of ten. On to `CC(C)CCCCC(=O)C1C(=O)OC[C@H]1CO` (stereo partly drawn) [A factor], for which, on ArpA, the pKd was 9.15.

For virginiae butanolide [VB], the toxicity to plants entry in the series on plants is reported as “no toxicity”. For the same molecule, the “concentration at which gene expression under the control of BARE-3 is induced to a satisfactory extent” value in series [1] was determined as 100 nM.

These data come from patent US7049486B2, “Method of inducing gene expression in plant and the plant treated thereby” (priority 2000, dated 2006).
